We go through one compound from patent EP0062319A1, “3-Methyl-1-(2-(3-naphthyloxy)-ethyl)-2-pyrazolin-5-one for the treatment of the metastasis and growth of tumour cells” (BAYER AG, priority 1981, dated 1982).

Test [1] deals with Lewis-Lungenkarzinom-Zellen. Nature of the test: DNA synthesis by 3H-thymidine uptake in Lewis lung carcinoma cells in vitro. Conditions: 0,1, 1,0, 10 and 25 µg/ml, 4 h and 18 h, Fig. 1, relative to control = 100 %. Type of test: cell-based, Mäuse. The source says: Die antineoplastische Wirksamkeit wurde in vitro durch Messung der DNS-Synthese sowohl von B-16a- als auch von Lewis-Lungenkarzinom-Zellen durch eine Methode gemessen, der die Thymidin-Aufnahme zugrundeliegt. Zellen, die in Vorbereitung der Zellteilung DNS synthetisieren, sind durch ihre Fähigkeit gekennzeichnet, Thymidin aufzunehmen. Demnach ist die Zell-Proliferation mit der DNS-Synthese verbunden. Wenn die Menge der durch die Tumorzellen synthetisierten DNS vermindert wird, so ist das ein Anzeichen dafür, daß die Zellteilung und damit das Tumorwachstum gehemmt worden ist.
B-16a- und Lewis-Lungenkarzinom-Zellen wurden wie vor- stehend beschrieben erhalten. Die dispergierten Zellen wurden in sterilen 25 ml-Erlenmeyer-Kolben aus Kunststoff auf eine Konzentration von 1 x 10^5 Zellen/ml in MEM verdünnt. Tritium-markiertes Thymidin (^3H) mit einer spezifischen Aktivität von […] (50-80 Ci/mmol) wurde mit […] (2 µCi/ml) zu jedem ml der Zellsuspension hinzugefügt.
Zu einer Reihe von Kolben, die die B-16 - und Lewis-Lungenkarzinom-Zellen enthielten, wurde die Pyrazolon-Verbindung in Mengen von 0,1 , 1,0 , 10 und 25 µg/ml des Gesamtvolumens hinzugefügt. […]

The test system of the next test is Lewis-Lungen-Karzinom. Description: Tumour incidence and final tumour weight of subcutaneous Lewis lung carcinoma in mice. Format: in vivo, C57BL/6J Mäuse. Particulars: killed day 22; for Gewicht: final tumour weight. The source says: Die antineoplastische Wirksamkeit wurde außerdem durch direkte Messung des Wachstums der Tumorzellen in vitro in Gewebekulturen bestimmt. Diese Methode bedient sich des "Plating" oder Aufimpfens einer bekannten Anzahl von Tumorzellen auf ein Wachstumsmedium und der Bestimmung der Wirkung der Anwesenheit der zu prüfenden Verbindung auf die Tumorzellen-Proliferation. Schließlich wurde die antineoplastische Aktivität in vivo in der Weise bestimmt, daß den Mäusen subkutan Tumorzellen injiziert wurden und das Auftreten von Tumorzellenwachstum sowie das Gewicht der wachsenden Tumorzellen in unbehandelten Kontrolltieren und in mit der Pyrazolon-Verbindung behandelten Tieren bestimmt wurden.
3 mg 3-Methyl-1-[2-(2-naphthyloxy)-ethyl]-2-pyrazolin-5-on wurden in 0,6 ml Ethylalkohol gelöst, und die Lösung wurde mit konzentrierter Natronlauge auf einen pH von 9,5 eingestellt.
Syngeneischen C57BL/6J Wirts-Mäusen wurden 1 x 10^5 Lewis-Lungenkarzinom-Zellen (0,2 ml) subkutan in die Achselhöhlenregion injiziert. Nach einem Zeitraum von 24 Stunden wurde die Pyrazolon-Verbindung 21 Tage lang täglich verabreicht. Die Wirkung der Verabreichung von Theophyllin zusammen mit der Pyrazolon-Verbindung wurde ebenfalls untersucht. Während des Zeitraums wurden die Mäuse unter identischen Bedingungen der Temperatur, Lichteinwirkungsdauer, Ernährung etc. gehalten. Die Mäuse wurden 22 Tage nach der Injektion der Tumorzellen getötet und mittels einer Gesamt-Nekropsie auf die Anwesenheit subkutaner Tumoren untersucht. Vorhandene Tumoren wurden entfernt und auf einer Analysenwaage gewogen.

For the compound `CC1=NN(CCOc2ccc3ccccc3c2)C(=O)C1` [3-Methyl-1-[2-(2-naphthyloxy)-ethyl]-2-pyrazolin-5-on], in test [1], the “DNS-Synthese (3H-Thymidinaufnahme)” value is “konzentrationsabhängige Abnahme der DNS-Synthese”. Moreover, the “Tumor-Häufigkeit Anzahl” value was 3/12 in the test on Lewis-Lungen-Karzinom (0.01 mg daily s.c. for 21 days from 24 h after 10^5 3LL cells s.c.), 4/12 with Lewis-Lungen-Karzinom (0.02 mg daily s.c. for 21 days) and 1/12 in the test on Lewis-Lungen-Karzinom (0.08 mg daily s.c. for 21 days). Also, the Tumor-Häufigkeit % in the test with Lewis-Lungen-Karzinom (0.01 mg daily s.c. for 21 days) is 25%; in the test on Lewis-Lungen-Karzinom (0.02 mg daily s.c. for 21 days), 33%; in the test on Lewis-Lungen-Karzinom (0.08 mg daily s.c. for 21 days) it was 8%. Further, the “Gewicht” value in the test on Lewis-Lungen-Karzinom (0.01 mg daily s.c. for 21 days) is recorded as 0.74 ± 0.46 mg; with Lewis-Lungen-Karzinom (0.02 mg daily s.c. for 21 days), 0.49 ± 0.27 mg; in the test on Lewis-Lungen-Karzinom (0.08 mg daily s.c. for 21 days) it was 0.16 mg.
